According to patent US10526327B2, “Histone demethylase inhibitors” (CELGENE QUANTICEL RESEARCH, INC., priority 2013, dated 2020):

Target: T1, Jarid1B (Homo sapiens, UniProt Q9UGL1)
T1 construct: purchased BPS Bioscience or custom made by MolecularThroughput 50121
T1 sequence (Q9UGL1 2-751): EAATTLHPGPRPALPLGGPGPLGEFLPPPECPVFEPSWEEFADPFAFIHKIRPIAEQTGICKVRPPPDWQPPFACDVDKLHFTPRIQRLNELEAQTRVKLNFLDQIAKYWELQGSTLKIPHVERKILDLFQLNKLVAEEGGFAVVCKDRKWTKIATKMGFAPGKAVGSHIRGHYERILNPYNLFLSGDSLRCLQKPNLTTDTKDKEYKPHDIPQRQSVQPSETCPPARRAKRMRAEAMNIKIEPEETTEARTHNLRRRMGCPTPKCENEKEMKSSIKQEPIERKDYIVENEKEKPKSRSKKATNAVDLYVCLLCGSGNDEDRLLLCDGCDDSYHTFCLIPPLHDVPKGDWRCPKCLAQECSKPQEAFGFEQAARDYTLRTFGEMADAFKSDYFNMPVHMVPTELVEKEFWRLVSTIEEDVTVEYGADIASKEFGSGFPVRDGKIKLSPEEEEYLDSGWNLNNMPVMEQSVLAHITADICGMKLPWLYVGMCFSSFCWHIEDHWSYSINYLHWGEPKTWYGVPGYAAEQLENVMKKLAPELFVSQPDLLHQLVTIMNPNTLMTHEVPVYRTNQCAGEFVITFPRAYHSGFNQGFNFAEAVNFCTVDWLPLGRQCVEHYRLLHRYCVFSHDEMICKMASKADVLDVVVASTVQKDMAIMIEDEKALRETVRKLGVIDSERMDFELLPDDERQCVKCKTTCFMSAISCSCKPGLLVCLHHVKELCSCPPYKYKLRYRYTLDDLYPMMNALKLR
Assay: Jarid1B in vitro enzyme inhibition assay (TR-FRET)
Type: biochemical
Procedure, shortened: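 Jarid1B (AA 2-751, baculovirus-expressed) at 0.8 nM with 300 nM biotin-H3K4me3 peptide and 2 μM α-ketoglutarate in HEPES pH 7.3 with ascorbate and Fe(II), 30 min at room temperature. Stopped with EDTA; H3K4me1-2 product detected by TR-FRET (665/615 ratio) and IC50 fitted from 11-point dilutions.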

Row | IC50 [nM] | Compound
1 | ≤ 100 | O=S(=O)(C1CC1)N1CCCC(n2cc(Oc3nc(O)c4ccncc4n3)cn2)C1 (stereo in doubt) [Example 151, 2-({1-[(3S)-1-(cyclopropanesulfonyl)piperidin-3-yl]-1H-pyrazol-4-yl}oxy)pyrido[3,4-d]pyrimidin-4-ol]
2 | ≤ 100 | Oc1nc(Oc2cnn(C3CCCN(c4ccc(F)cc4)C3)c2)nc2cnccc12 (stereo in doubt) [Example 169, 2-({1-[(3R)-1-(4-fluorophenyl)piperidin-3-yl]-1H-pyrazol-4-yl}oxy)pyrido[3,4-d]pyrimidin-4-ol]
3 | 100 to 1000 | Oc1nc(OCCC(F)(F)F)nc2cnccc12 [Example 13, 2-(3,3,3-trifluoropropoxy)pyrido[3,4-d]pyrimidin-4-ol]
4 | 100 to 1000 | CC(C)COc1nc(O)c2ccncc2n1 [Example 14, 2-(2-methylpropoxy)pyrido[3,4-d]pyrimidin-4-ol]
5 | 100 to 1000 | CC(COc1nc(O)c2ccncc2n1)c1ccccc1 (stereo not drawn) [Example 17, 2-(2-phenylpropoxy)pyrido[3,4-d]pyrimidin-4-ol]
6 | ≤ 100 | Oc1nc(OCCc2ccccc2)nc2cnccc12 [Example 18, 2-(2-phenylethoxy)pyrido[3,4-d]pyrimidin-4-ol]
7 | 1000 to 10000 | CC(Cc1ccccc1)Oc1nc(O)c2ccncc2n1 (stereo not drawn) [Example 19, 2-(1-phenylpropan-2-yloxy)pyrido[3,4-d]pyrimidin-4-ol]
8 | 1000 to 10000 | CN(C)CCCOc1nc(O)c2ccncc2n1 [Example 21, 2-[3-(dimethylamino)propoxy]pyrido[3,4-d]pyrimidin-4-ol]
9 | 100 to 1000 | COCCOc1nc(O)c2ccncc2n1 [Example 22, 2-(2-methoxyethoxy)pyrido[3,4-d]pyrimidin-4-ol]
10 | ≤ 100 | Cn1cnc(-c2nccc3c(O)nc(OCc4ccccc4C(F)(F)F)nc23)c1 [Example 107, 8-(1-methyl-1H-imidazol-4-yl)-2-{[2-(trifluoromethyl)phenyl]methoxy}pyrido[3,4-d]pyrimidin-4-ol]
11 | 1000 to 10000 | Cn1cnc(-c2nccc3c(O)nc(O[C@H](c4ccccc4)C(F)(F)F)nc23)c1 [Example 108, 8-(1-methyl-1H-imidazol-4-yl)-2-[(1R)-2,2,2-trifluoro-1-phenylethoxy]pyrido[3,4-d]pyrimidin-4-ol]
12 | 1000 to 10000 | Cn1cnc(-c2nccc3c(O)nc(O[C@@H](c4ccccc4)C(F)(F)F)nc23)c1 [Example 109, 8-(1-methyl-1H-imidazol-4-yl)-2-[(1S)-2,2,2-trifluoro-1-phenylethoxy]pyrido[3,4-d]pyrimidin-4-ol]
13 | 100 to 1000 | CCC(Oc1nc(O)c2ccnc(-c3cn(C)cn3)c2n1)C(F)(F)F (stereo not drawn) [Example 110, 8-(1-methyl-1H-imidazol-4-yl)-2-[(1,1,1-trifluorobutan-2-yl)oxy]pyrido[3,4-d]pyrimidin-4-ol]
14 | 100 to 1000 | Cn1cnc(-c2nccc3c(O)nc(OCc4ccc(C(F)(F)F)cc4)nc23)c1 [Example 111, 8-(1-methyl-1H-imidazol-4-yl)-2-{[4-(trifluoromethyl)phenyl]methoxy}pyrido[3,4-d]pyrimidin-4-ol]
15 | ≤ 100 | Cn1cnc(-c2nccc3c(O)nc(OCc4ccc(Cl)cc4)nc23)c1 [Example 112, 2-[(4-chlorophenyl)methoxy]-8-(1-methyl-1H-imidazol-4-yl)pyrido[3,4-d]pyrimidin-4-ol]
16 | ≤ 100 | Cn1cnc(-c2nccc3c(O)nc(Oc4ccc(Cl)c(Cl)c4)nc23)c1 [Example 113, 2-(3,4-dichlorophenoxy)-8-(1-methyl-1H-imidazol-4-yl)pyrido[3,4-d]pyrimidin-4-ol]
17 | ≤ 100 | Oc1nc(Oc2ccc(Cl)c(Cl)c2)nc2cnccc12 [Example 114, 2-(3,4-dichlorophenoxy)pyrido[3,4-d]pyrimidin-4-ol]
18 | ≤ 100 | CCC(c1ccccc1)n1cc(Oc2nc(O)c3ccncc3n2)cn1 (stereo not drawn) [Example 115, 2-{[1-(1-phenylpropyl)-1H-pyrazol-4-yl]oxy}pyrido[3,4-d]pyrimidin-4-ol]

Row | IC50 [nM] | Compound
19 | ≤ 100 | Oc1nc(Oc2cnn(C(c3ccccc3)C3CC3)c2)nc2cnccc12 (stereo not drawn) [Example 116, 2-({1-[cyclopropyl(phenyl)methyl]-1H-pyrazol-4-yl}oxy)pyrido[3,4-d]pyrimidin-4-ol]
20 | ≤ 100 | C[C@H](c1ccccc1)n1cc(Oc2nc(O)c3ccncc3n2)cn1 [Example 117, 2-({1-[(1R)-1-phenylethyl]-1H-pyrazol-4-yl}oxy)pyrido[3,4-d]pyrimidin-4-ol]
21 | ≤ 100 | C[C@@H](c1ccccc1)n1cc(Oc2nc(O)c3ccncc3n2)cn1 [Example 118, 2-({1-[(1S)-1-phenylethyl]-1H-pyrazol-4-yl}oxypyrido) [3,4-d]pyrimidin-4-ol]
22 | ≤ 100 | C[C@H](c1ccccc1F)n1cc(Oc2nc(O)c3ccncc3n2)cn1 [Example 119, 2-({1-[(1R)-1-(2-fluorophenyl)ethyl]-1H-pyrazol-4-yl}oxy)pyrido[3,4-d]pyrimidin-4-ol]
23 | ≤ 100 | C[C@@H](c1ccccc1F)n1cc(Oc2nc(O)c3ccncc3n2)cn1 [Example 120, 2-({1-[(1s)-1-(2-fluorophenyl)ethyl]-1H-pyrazol-4-yl}oxy)pyrido[3,4-d]pyrimidin-4-ol]
24 | ≤ 100 | Oc1nc(Oc2cnn(Cc3ccccc3Cl)c2)nc2cnccc12 [Example 121, 2-({1-[(2-chlorophenyl)methyl]-1H-pyrazol-4-yl}oxy)pyrido[3,4-d]pyrimidin-4-ol]
25 | ≤ 100 | Oc1nc(Oc2cnn(Cc3cccc(Cl)c3)c2)nc2cnccc12 [Example 122, 2-({1-[(3-chlorophenyl)methyl]-1H-pyrazol-4-yl}oxy)pyrido[3,4-d]pyrimidin-4-ol]
26 | ≤ 100 | Oc1nc(Oc2cnn(C3CCN(Cc4ccccc4)CC3)c2)nc2cnccc12 [Example 123, 2-{[1-(1-benzylpiperidin-4-yl)-1H-pyrazol-4-yl]oxy}pyrido[3,4-d]pyrimidin-4-ol]
27 | ≤ 100 | Oc1nc(Oc2cnn(CCN3CCOCC3)c2)nc2cnccc12 [Example 124, 2-({1-[2-(morpholin-4-yl)ethyl]-1H-pyrazol-4-yl}oxy)pyrido[3,4-d]pyrimidin-4-ol]
28 | ≤ 100 | Oc1nc(Oc2cnn([C@@H]3CCNC3)c2)nc2cnccc12 [Example 125, 2-({1-[(3R)-pyrrolidin-3-yl]-1H-pyrazol-4-yl}oxy)pyrido[3,4-d]pyrimidin-4-ol]
29 | ≤ 100 | CCS(=O)(=O)N1CC[C@@H](n2cc(Oc3nc(O)c4ccncc4n3)cn2)C1 [Example 126, 2-({1-[(3R)-1-(ethanesulfonyl)pyrrolidin-3-yl]-1H-pyrazol-4-yl}oxy)pyrido[3,4-d]pyrimidin-4-ol]
30 | ≤ 100 | O=S(=O)(C1CC1)N1CC[C@@H](n2cc(Oc3nc(O)c4ccncc4n3)cn2)C1 [Example 127, 2-({1-[(3R)-1-(cyclopropanesulfonyl)pyrrolidin-3-yl]-1H-pyrazol-4-yl}oxy)pyrido[3,4-d]pyrimidin-4-ol]
31 | ≤ 100 | O=S(=O)(c1ccccc1)N1CC[C@@H](n2cc(Oc3nc(O)c4ccncc4n3)cn2)C1 [Example 128, 2-({1-[(3R)-1-(benzenesulfonyl)pyrrolidin-3-yl]-1H-pyrazol-4-yl}oxy)pyrido[3,4-d]pyrimidin-4-ol]
32 | ≤ 100 | CC(=O)N1CC[C@@H](n2cc(Oc3nc(O)c4ccncc4n3)cn2)C1 [Example 129, 1-[(3R)-3-[4-({4-hydroxypyrido[3,4-d]pyrimidin-2-yl}oxy)-1H-pyrazol-1-yl]pyrrolidin-1-yl]ethan-1-one]
33 | ≤ 100 | N#CCC(=O)N1CC[C@@H](n2cc(Oc3nc(O)c4ccncc4n3)cn2)C1 [Example 130, 3-[(3R)-3-[4-({4-hydroxypyrido[3,4-d]pyrimidin-2-yl}oxy)-1H-pyrazol-1-yl]pyrrolidin-1-yl]-3-oxopropanenitrile]
34 | ≤ 100 | O=C(C1CC1)N1CC[C@@H](n2cc(Oc3nc(O)c4ccncc4n3)cn2)C1 [Example 131, 2-({1-[(3R)-1-cyclopropanecarbonylpyrrolidin-3-yl]-1H-pyrazol-4-yl}oxy)pyrido[3,4-d]pyrimidin-4-ol]
35 | ≤ 100 | O=C(c1ccccc1)N1CC[C@@H](n2cc(Oc3nc(O)c4ccncc4n3)cn2)C1 [Example 132, 2-({1-[(3R)-1-benzoylpyrrolidin-3-yl]-1H-pyrazol-4-yl}oxy)pyrido[3,4-d]pyrimidin-4-ol]
36 | ≤ 100 | Oc1nc(Oc2cnn([C@@H]3CCN(Cc4ccccc4)C3)c2)nc2cnccc12 [Example 133, 2-({1-[(3R)-1-benzylpyrrolidin-3-yl]-1H-pyrazol-4-yl}oxy)pyrido[3,4-d]pyrimidin-4-ol]

Row | Compound | IC50 [nM]
37 | CC(C)CCOc1nc(O)c2ccncc2n1 [Example 15, 2-(3-methylbutoxy)pyrido[3,4-d]pyrimidin-4-ol] | ≤ 100
38 | CCC(C)COc1nc(O)c2ccncc2n1 (stereo not drawn) [Example 16, 2-(2-methylbutoxy)pyrido[3,4-d]pyrimidin-4-ol] | 100 to 1000
39 | Oc1nc(OCCCC(F)(F)F)nc2cnccc12 [Example 20, 2-(4,4,4-trifluorobutoxy)pyrido[3,4-d]pyrimidin-4-ol] | ≤ 100
